From US10059717B2, “Urea compounds containing 3,4-dihydropyrimido[4,5-D]pyrimidin-2(1H)-one skeleton as protein kinase inhibitors” (KOREA INSTITUTE OF SCIENCE AND TECHNOLOGY, priority 2016, dated 2018)

How the values were obtained:
GCK = target: T1, GCK (Homo sapiens, UniProt Q12851); test: GCK kinase inhibitory activity; format: biochemical; settings: read-out: Kinase inhibitory efficacy, GI50 GCK
T1 sequence (Q12851 1-820): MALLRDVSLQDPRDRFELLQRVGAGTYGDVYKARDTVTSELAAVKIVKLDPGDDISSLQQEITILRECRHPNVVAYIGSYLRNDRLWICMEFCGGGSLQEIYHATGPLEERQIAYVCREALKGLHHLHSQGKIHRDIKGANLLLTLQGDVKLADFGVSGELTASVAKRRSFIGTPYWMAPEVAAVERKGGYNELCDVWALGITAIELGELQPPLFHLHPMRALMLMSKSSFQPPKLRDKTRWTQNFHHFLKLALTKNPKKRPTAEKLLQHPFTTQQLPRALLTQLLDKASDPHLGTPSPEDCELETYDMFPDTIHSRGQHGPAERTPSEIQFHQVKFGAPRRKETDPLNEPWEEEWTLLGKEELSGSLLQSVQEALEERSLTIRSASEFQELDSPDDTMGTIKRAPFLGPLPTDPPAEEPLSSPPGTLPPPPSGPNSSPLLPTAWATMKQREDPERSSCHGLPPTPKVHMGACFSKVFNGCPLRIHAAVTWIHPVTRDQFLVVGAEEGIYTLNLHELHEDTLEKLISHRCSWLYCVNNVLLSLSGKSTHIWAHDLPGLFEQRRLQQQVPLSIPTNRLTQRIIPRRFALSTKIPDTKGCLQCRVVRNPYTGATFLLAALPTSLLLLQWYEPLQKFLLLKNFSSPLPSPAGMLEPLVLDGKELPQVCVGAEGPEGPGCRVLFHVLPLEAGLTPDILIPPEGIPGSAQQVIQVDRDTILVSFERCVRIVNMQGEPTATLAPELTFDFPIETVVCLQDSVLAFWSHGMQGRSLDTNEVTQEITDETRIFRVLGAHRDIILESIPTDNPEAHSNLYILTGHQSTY
Experimental: (§1) GI50 values were calculated by measuring the inhibitory efficacy of the compounds of the present invention against both GCK and ACK1 kinases.

ACK1 = ACK1 (Homo sapiens, UniProt Q07912); test: ACK1 kinase inhibitory activity; format: biochemical; settings: read-out: Kinase inhibitory efficacy, GI50 ACK1
Experimental: as §1

OCI-AML3 (N-Ras Q61L) = test: Proliferation inhibitory activity, OCI-AML3; format: cell-based; settings: Homo sapiens, OCI-AML-3; OCI-AML3 (N-Ras Q61L) cell line; read-out: Proliferation inhibitory efficacy (GI50, μM) OCI-AML3 (N-Ras Q61L)
Experimental: (§2) GI50 values were calculated by measuring the proliferation inhibitory efficacy of the compounds of the present invention on mt-NRAS (G12D) Ba/F3, U937 (wt-NRAS) and OCI-AML3 (mt-NRAS) cell lines.
Accordingly, the compounds of the present invention are particularly effective as a therapeutic agent for acute myelogenous leukemia (AML).

U937 (N-Ras WT) = test: Proliferation inhibitory activity, U937; format: cell-based; settings: Homo sapiens, U-937; U937 (N-Ras WT) cell line; read-out: Proliferation inhibitory efficacy (GI50, μM) U937 (N-Ras WT)
Experimental: as §2

Ba/F3 (N-Ras G12D) = test: Proliferation inhibitory activity, Ba/F3; format: cell-based; settings: Mus musculus, BaF3; Ba/F3 (N-Ras G12D) cell line; read-out: Proliferation inhibitory efficacy (GI50, μM) Ba/F3 (N-Ras G12D)
Experimental: as §2

FGFR2 = FGFR2 (Homo sapiens, UniProt P21802); test: Kinase panel biochemical assay; settings: 1 μM single concentration, read-out: % residual enzyme activity
Method in brief: (§3)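 Values reflect one-concentration (1 μM) biochemical testing; inhibition is derived from the percent of kinase activity that remains.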

JAK1 = JAK1 (Homo sapiens, UniProt P23458); test: Kinase panel biochemical assay; settings: 1 μM single concentration, read-out: % residual enzyme activity
Method in brief: as §3

LRRK2 = LRRK2 (Homo sapiens, UniProt Q5S007); test: Kinase panel biochemical assay; settings: 1 μM single concentration, read-out: % residual enzyme activity
Method in brief: as §3

P38a/MAPK14 = P38a/MAPK14 (Homo sapiens, UniProt Q16539); test: Kinase panel biochemical assay; settings: 1 μM single concentration, read-out: % residual enzyme activity
Method in brief: as §3

PYK2 = PYK2 (Homo sapiens, UniProt Q14289); test: Kinase panel biochemical assay; settings: 1 μM single concentration, read-out: % residual enzyme activity
Method in brief: as §3

SIK2 = SIK2 (Homo sapiens, UniProt Q9H0K1); test: Kinase panel biochemical assay; settings: 1 μM single concentration, read-out: % residual enzyme activity
Method in brief: as §3

SRMS = SRMS (Homo sapiens, UniProt Q9H3Y6); test: Kinase panel biochemical assay; settings: 1 μM single concentration, read-out: % residual enzyme activity
Method in brief: as §3

SIK2, sequence (Q9H0K1 whole entry): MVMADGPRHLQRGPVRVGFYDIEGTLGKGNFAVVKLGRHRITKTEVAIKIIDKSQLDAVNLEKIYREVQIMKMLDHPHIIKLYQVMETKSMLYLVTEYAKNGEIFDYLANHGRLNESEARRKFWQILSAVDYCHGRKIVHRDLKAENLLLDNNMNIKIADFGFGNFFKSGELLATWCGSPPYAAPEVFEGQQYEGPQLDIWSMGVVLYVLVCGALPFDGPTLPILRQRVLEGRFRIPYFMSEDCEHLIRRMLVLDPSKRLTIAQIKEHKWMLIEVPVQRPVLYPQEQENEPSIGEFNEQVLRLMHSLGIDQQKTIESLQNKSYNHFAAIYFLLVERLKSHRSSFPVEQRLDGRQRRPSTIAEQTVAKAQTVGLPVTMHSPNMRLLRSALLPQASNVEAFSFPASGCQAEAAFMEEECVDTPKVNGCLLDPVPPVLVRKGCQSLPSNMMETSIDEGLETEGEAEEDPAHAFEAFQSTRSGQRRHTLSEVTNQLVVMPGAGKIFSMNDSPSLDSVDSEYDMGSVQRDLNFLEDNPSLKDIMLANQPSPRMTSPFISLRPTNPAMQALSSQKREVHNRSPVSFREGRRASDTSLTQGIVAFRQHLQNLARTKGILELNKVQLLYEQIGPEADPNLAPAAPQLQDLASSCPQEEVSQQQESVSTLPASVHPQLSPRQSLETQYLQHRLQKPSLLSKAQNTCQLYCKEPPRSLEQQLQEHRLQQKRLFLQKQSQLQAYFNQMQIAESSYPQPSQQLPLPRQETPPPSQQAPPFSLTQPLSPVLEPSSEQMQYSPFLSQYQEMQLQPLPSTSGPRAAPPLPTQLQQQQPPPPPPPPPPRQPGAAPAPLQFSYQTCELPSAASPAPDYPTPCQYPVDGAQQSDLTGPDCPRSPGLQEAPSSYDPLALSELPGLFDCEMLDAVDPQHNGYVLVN
PYK2, sequence (Q14289 whole entry): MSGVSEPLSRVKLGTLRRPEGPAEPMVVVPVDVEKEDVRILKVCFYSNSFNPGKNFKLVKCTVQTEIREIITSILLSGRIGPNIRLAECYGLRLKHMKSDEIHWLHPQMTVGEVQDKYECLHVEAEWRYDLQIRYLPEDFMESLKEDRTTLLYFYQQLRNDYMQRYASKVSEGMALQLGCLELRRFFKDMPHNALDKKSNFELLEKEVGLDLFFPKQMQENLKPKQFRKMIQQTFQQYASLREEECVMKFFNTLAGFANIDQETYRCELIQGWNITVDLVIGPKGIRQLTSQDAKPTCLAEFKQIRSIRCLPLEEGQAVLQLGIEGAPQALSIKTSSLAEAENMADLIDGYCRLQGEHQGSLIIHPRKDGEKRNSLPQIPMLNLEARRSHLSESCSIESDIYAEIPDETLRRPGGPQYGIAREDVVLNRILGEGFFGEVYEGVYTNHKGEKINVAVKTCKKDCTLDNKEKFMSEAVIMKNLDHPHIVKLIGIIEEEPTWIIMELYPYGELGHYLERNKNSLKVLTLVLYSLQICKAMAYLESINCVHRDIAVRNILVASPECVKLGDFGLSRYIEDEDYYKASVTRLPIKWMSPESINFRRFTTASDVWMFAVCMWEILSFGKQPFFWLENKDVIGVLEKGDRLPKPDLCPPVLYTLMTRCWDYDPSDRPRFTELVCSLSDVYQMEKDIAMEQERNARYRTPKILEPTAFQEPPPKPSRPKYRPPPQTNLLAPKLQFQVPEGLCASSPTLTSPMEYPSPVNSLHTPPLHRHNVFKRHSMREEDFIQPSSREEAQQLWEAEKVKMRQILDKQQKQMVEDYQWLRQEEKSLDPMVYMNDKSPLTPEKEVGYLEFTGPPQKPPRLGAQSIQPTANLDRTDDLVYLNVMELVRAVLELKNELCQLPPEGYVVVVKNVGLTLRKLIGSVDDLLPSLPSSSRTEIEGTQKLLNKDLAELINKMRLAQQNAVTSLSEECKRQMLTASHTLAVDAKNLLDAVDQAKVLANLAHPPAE
SRMS, sequence (Q9H3Y6 whole entry): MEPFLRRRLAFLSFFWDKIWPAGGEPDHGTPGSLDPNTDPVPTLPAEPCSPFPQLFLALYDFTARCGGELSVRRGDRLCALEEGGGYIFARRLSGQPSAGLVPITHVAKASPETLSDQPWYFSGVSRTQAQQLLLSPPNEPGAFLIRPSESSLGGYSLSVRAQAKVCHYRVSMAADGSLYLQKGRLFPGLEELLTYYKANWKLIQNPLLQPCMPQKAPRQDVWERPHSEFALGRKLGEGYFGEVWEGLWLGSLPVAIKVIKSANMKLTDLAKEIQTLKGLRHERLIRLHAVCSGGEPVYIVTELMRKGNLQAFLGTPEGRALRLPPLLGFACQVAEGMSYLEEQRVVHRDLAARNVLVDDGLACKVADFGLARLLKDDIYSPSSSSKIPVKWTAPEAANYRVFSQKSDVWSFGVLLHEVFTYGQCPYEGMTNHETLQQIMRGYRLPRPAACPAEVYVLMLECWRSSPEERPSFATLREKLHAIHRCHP
ACK1, sequence (Q07912 whole entry): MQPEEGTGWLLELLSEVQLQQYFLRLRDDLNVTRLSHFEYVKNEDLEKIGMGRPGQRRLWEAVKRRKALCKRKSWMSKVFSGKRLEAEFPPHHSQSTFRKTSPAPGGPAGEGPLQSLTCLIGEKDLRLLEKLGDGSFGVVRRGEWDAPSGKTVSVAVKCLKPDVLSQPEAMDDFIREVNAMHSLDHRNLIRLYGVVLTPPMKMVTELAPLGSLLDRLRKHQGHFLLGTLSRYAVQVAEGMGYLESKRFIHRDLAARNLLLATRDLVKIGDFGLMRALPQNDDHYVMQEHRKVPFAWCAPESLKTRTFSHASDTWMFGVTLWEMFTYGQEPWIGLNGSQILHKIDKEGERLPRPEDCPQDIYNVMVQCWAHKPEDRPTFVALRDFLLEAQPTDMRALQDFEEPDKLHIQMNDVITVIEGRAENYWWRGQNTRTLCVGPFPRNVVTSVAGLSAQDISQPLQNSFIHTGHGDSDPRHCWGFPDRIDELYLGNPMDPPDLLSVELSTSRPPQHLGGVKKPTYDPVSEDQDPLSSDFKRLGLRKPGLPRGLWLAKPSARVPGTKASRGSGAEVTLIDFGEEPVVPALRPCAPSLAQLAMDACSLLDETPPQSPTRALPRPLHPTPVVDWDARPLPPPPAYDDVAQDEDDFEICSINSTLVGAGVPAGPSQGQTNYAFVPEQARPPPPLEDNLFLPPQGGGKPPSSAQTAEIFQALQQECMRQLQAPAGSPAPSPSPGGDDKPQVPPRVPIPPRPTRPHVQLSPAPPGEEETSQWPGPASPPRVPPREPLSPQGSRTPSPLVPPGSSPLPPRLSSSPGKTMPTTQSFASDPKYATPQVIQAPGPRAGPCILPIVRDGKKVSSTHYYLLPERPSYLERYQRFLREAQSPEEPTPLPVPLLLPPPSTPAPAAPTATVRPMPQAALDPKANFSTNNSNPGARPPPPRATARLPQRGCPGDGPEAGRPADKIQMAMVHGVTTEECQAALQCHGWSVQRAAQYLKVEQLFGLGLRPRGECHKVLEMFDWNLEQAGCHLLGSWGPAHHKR
JAK1, sequence (P23458 whole entry): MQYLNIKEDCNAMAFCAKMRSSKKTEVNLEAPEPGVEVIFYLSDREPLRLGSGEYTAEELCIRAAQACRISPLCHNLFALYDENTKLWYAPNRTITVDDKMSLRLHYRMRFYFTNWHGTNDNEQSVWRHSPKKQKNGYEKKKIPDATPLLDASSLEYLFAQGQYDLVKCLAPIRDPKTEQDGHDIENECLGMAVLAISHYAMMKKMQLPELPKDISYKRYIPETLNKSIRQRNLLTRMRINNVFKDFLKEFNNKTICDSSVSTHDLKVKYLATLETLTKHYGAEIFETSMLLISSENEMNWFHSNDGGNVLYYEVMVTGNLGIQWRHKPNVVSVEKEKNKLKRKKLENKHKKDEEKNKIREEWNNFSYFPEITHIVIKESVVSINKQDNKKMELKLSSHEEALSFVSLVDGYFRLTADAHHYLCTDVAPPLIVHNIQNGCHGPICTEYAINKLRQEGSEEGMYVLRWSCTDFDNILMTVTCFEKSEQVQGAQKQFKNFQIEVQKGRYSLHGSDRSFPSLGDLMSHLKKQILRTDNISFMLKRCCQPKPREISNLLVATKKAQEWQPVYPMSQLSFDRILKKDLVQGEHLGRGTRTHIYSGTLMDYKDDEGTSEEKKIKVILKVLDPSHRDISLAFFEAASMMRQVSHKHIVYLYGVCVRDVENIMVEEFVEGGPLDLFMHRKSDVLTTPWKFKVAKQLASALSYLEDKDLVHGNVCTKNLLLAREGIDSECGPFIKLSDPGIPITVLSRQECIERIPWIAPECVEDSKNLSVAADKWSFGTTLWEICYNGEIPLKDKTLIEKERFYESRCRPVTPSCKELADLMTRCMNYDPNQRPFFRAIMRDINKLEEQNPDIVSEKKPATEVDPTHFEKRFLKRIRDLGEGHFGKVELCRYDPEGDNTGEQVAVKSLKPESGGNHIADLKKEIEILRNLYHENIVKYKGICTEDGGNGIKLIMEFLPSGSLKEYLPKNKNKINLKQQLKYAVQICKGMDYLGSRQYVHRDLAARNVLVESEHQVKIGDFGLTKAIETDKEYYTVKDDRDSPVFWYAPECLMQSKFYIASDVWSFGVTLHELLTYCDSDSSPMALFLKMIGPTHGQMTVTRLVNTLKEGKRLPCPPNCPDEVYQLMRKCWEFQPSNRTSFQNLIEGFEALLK
P38a/MAPK14, sequence (Q16539 whole entry): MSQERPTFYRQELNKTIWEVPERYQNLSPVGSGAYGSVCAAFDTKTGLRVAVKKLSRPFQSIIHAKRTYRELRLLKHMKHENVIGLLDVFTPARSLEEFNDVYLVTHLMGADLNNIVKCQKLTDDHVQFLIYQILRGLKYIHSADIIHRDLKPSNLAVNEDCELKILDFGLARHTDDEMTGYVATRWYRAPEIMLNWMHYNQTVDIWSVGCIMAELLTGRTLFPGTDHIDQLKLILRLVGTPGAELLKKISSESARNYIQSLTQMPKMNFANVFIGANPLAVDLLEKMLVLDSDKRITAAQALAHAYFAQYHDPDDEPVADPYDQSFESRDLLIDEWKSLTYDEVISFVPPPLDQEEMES

- GI50 (GCK): < 0.03 µM
- GI50 (ACK1): < 0.03 µM
- GI50 (OCI-AML3 (N-Ras Q61L)): < 0.5 µM
- GI50 (U937 (N-Ras WT)): ≥ 5 µM
- GI50 (Ba/F3 (N-Ras G12D)): 0.5 to 3 µM
- remaining activity at 1 µM (FGFR2): ≤ 30%
- remaining activity at 1 µM (JAK1): ≤ 30%
- remaining activity at 1 µM (LRRK2): ≤ 30%
- remaining activity at 1 µM (P38a/MAPK14): ≤ 30%
- remaining activity at 1 µM (PYK2): ≤ 30%
- remaining activity at 1 µM (SIK2): ≤ 30%
- remaining activity at 1 µM (SRMS): ≤ 30%
SMILES: CCN1CCN(C(=O)c2ccc(Nc3ncc4c(n3)N(C)C(=O)N(c3cc(NC(=O)Nc5ccccc5OC)ccc3C)C4)cn2)CC1 [Compound No. 14, 1-(3-(7-((6-(4-ethylpiperazin-1-carbonyl)pyridin-3-yl)amino)-1-methyl-2-oxo-1,4-dihydropyrimido[4,5-d]pyrimidin-3(2H)-yl)-4-methylphenyl)-3-(2-methoxyphenyl)urea]
